Measurements published in PubChem BioAssay (NCI).
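Briefly, cells in 96-well plates were exposed to five compound concentrations for 48 h, and endpoints were estimated by linear interpolation. GI50 is the concentration that inhibits growth by half. The concentration for full growth arrest is given as TGI.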

What was measured:
Assay in all cases: NCI anticancer screen, dose series, 48 h
SNB-19 CNS = test system: SNB-19 CNS
HCT-15 colon = test system: HCT-15 colon
M14 melanoma = test system: M14 melanoma
NCI-H522 lung = test system: NCI-H522 lung
SR leukemia = test system: SR leukemia
UACC-257 melanoma = test system: UACC-257 melanoma
SN12C renal = test system: SN12C renal
K-562 leukemia = test system: K-562 leukemia
IGROV1 ovarian = test system: IGROV1 ovarian
SK-OV-3 ovarian = test system: SK-OV-3 ovarian

Structure (SMILES) | GI50 (SNB-19 CNS) [µM] | TGI (SNB-19 CNS) [µM] | GI50 (HCT-15 colon) [µM] | TGI (HCT-15 colon) [µM] | GI50 (M14 melanoma) [µM] | TGI (M14 melanoma) [µM] | GI50 (NCI-H522 lung) [µM] | TGI (NCI-H522 lung) [µM] | GI50 (SR leukemia) [µM] | TGI (SR leukemia) [µM] | GI50 (UACC-257 melanoma) [µM] | TGI (UACC-257 melanoma) [µM] | GI50 (SN12C renal) [µM] | TGI (SN12C renal) [µM] | GI50 (K-562 leukemia) [µM] | TGI (K-562 leukemia) [µM] | GI50 (IGROV1 ovarian) [µM] | TGI (IGROV1 ovarian) [µM] | GI50 (SK-OV-3 ovarian) [µM] | TGI (SK-OV-3 ovarian) [µM]
N#C/C(=N\Nc1ccccc1)C(=O)Nc1cc(-c2ccccc2)nn1-c1ccccc1 | 3.6 | > 100 | 2.98 | > 100 | 2.68 | > 100 | 2.06 | 12.6 | 5.19 | > 100 | 2.47 | 9.93 | 2.74 | > 100 | 2.43 | > 100 | 4.49 | > 100 | – | –
CCCCCC[C@@H](C)NC(=O)c1ccc(Nc2nc3ccccc3c3occc23)cc1 | 5.54 | > 100 | 8.93 | > 100 | 2.23 | 8.3 | 1.31 | 4.54 | 18.9 | 45.5 | 2.19 | 5.66 | 40.8 | > 100 | 4.82 | > 100 | 1.61 | 4.54 | 4.25 | > 100
CC(=O)/C=C/C1=C(c2csc3ccccc23)c2ccccc2CC1 | 32.5 | > 100 | 23.5 | > 100 | 16.5 | 37.3 | 14.2 | 67.9 | 16 | 64.6 | 20.8 | 53.9 | 32.6 | > 100 | 18.8 | > 100 | 15.4 | > 100 | 22.4 | > 100
Cc1cccc(C)c1N1C(=O)C(=O)C(c2nc3ccccc3s2)/C(=N/NC(=O)c2ccccc2O)C1=O (stereo not given) | – | > 79.8 | – | > 100 | – | > 100 | – | 39.6 | – | 86.3 | – | 68.2 | – | > 100 | – | > 57 | – | > 82.2 | – | > 100
N#CC(C#N)=Cc1ccc(CP(=O)(O)O)cc1 | – | > 100 | – | > 100 | – | > 100 | – | > 100 | – | – | – | > 100 | – | > 100 | – | > 100 | – | > 100 | – | > 100
Cc1[nH]c(N)nc(=S)c1CCC(=O)O | – | > 100 | – | > 100 | – | > 100 | – | > 100 | – | > 100 | – | > 100 | – | > 100 | – | > 100 | – | > 100 | – | > 100
Cc1ccc2c(c1)C(=O)c1c-2c(OCCCN(C)C)nc2ccccc12 | 2.81 | 15.1 | 0.548 | 1.94 | 1.62 | 3.23 | 1.35 | 3.72 | 0.316 | 1.38 | 3.06 | 5.82 | 2.67 | 17.7 | 1.11 | 2.98 | 1.74 | 9.94 | 4.47 | 17.4
COc1ccc2c(c1)NC1(O)c3ccccc3C(=O)C21O (stereo not given) | – | > 100 | – | – | – | > 100 | – | > 100 | – | > 100 | – | > 100 | – | > 100 | – | > 100 | – | > 100 | – | > 100
O=S(=O)(N=NC=C1c2ccccc2N(O)c2ccccc21)c1ccc(Cl)cc1 | – | > 100 | – | > 100 | – | > 100 | – | > 100 | – | – | – | > 100 | – | > 100 | – | > 100 | – | > 100 | – | > 100
COC1=CC(c2ccc[nH]2)=N/C1=C\c1[nH]c(C)c(CC(=O)OCc2ccccc2)c1C | 0.671 | 12.4 | 0.292 | 1.1 | 0.233 | 0.59 | 0.273 | 1.86 | – | – | 0.605 | 2.24 | – | – | – | – | 0.325 | 1.34 | 0.457 | 2.77
COc1cc(C(=O)O[C@H](C(=O)NCCN(C)CCNC(=O)[C@@H](OC(=O)c2cc(OC)cc3c(C)cccc23)[C@]2(C)CO2)[C@]2(C)CO2)c2cccc(C)c2c1 | 0.265 | 1.18 | 0.0109 | 1.02 | – | – | – | – | – | – | 0.416 | 2.38 | < 0.0308 | 0.3 | < 0.0389 | 6.85 | < 0.0425 | – | 0.575 | 3.6
ClCc1ccccc1Cn1cnc2c(Cl)ncnc21 | 5.38 | > 100 | 2.07 | 4.71 | 1.94 | 3.74 | 1.82 | 7.24 | – | – | 10.7 | 26.6 | 3.37 | 8.72 | 1.2 | 5.13 | – | – | 4.19 | 15.9
CC(=O)NNc1nc(C)c(C(=O)/C=C/c2ccc(Cl)cc2)s1 | – | > 100 | – | – | – | – | – | > 100 | – | – | – | > 100 | – | – | – | > 100 | – | > 100 | – | > 100
CC(C)C(=O)c1c(C(F)(F)F)n([O-])c2cc(F)c(F)cc2[n+]1=O | 1.34 | 3.08 | 0.147 | 0.309 | 0.0708 | 0.387 | 1.96 | 6.22 | – | – | 2.28 | 6.38 | 0.288 | 0.767 | – | – | 0.161 | 53.7 | 1.04 | 2.85
CCCCc1c2cnccc2c(CCCC)c2c1[nH]c1ccccc12 | – | 22.1 | – | 46 | – | 41.1 | – | 58.2 | – | – | – | 36 | – | 62.4 | – | 19.9 | – | 30.3 | – | 42.2
Cc1nc(/C=C2\C(=O)C=Cc3ccccc32)c(O)o1 | – | > 100 | – | > 100 | – | > 100 | – | > 100 | – | – | – | > 100 | – | > 100 | – | > 100 | – | > 100 | – | –
COc1ccc2c(c1OC)C(C(Cl)(Cl)Cl)N1CCc3cc4c(cc3C1=C2)OCO4 (stereo not given) | – | > 100 | – | > 100 | – | > 100 | – | 35.1 | – | – | – | 62.9 | – | > 100 | – | – | – | 98.2 | – | 85.9
